{"source": "patent US20260284082A1", "about": "“TARGETING THE PANX1-P2Y2R-TRPV4 PATHWAY TO TREAT LUNG ISCHEMIA-REPERFUSION INJURY” (UNIVERSITY OF VIRGINIA PATENT FOUNDATION, priority 2023, published 2026)", "test_system": "porcine transplantation model of lung IRI", "assay": "Porcine left lung transplant model of lung IRI", "assay_type": "in vivo, swine", "settings": "for left lung-specific PaO2/FiO2 ratio: 1 mg/kg i.v., mean±SD", "description": "The University of Virginia's Animal Care and Use Committee approved this study, protocol 4262 (approved 10/23/2021). All procedures were performed in compliance with the National Institutes of Health 1996 Guide for the Care and Use of Laboratory Animals. Ten farm-raised, domestic swine of both sexes (31.6-60.0 kg weight range) were utilized. Animals were randomized to one of two groups (n=5/group). […] GSK219 or vehicle was administered as a systemic, intravenous infusion (100 ml volume over a 30-min period via central venous line placed in the left external jugular vein) beginning after the recipient animal's left pulmonary artery (PA) was clamped (i.e. at the time of recipient lung explant; approximately 40 min prior to initiation of graft reperfusion). All infusions were completed prior to reperfusion of the implanted lung.\nA porcine left lung transplant model was utilized as previously described by our laboratory^18, with modifications as described here. On day 1, the donor animal was sedated and intubated. General anesthesia was maintained while animals were ventilated with 100% oxygen to measure baseline parameters. Lungs were ventilated to a tidal volume of 8.0 mL/kg with a respiratory rate of 22 breaths/min and a positive end-expiratory pressure of 5.0 cm H2O. Intravenous heparin (200 IU/kg, APP Pharmaceuticals, Schaumburg, IL) was administered.\nDonor animals underwent a median sternotomy and pericardiotomy to expose the heart, great vessels, and lungs. Prostaglandin E1 ([…], Pfizer, New York, NY) was injected into the main PA. […] The lungs were then flushed with 1 L room temperature heparinized Perfadex (XVIVO Perfusion. Inc, Englewood, CO; 10,000 IU heparin per liter) via the cardioplegia cannula. At this point the lungs underwent 30 min of warm ischemia. At the conclusion of warm ischemia, the thoracic cavity was filled with cold (4° C.) slush, and lungs were flushed with an additional 1 L cold Perfadex via the main PA. At mid-inspiration, the trachea was clamped, and the heart-lung bloc was explanted. The lungs were then flushed retrograde with an additional IL cold Perfadex and placed in 4° C. cold storage for 24 hrs.\nOn day 2, recipient animals were anesthetized and ventilated as above for donor animals. A left thoracotomy was performed. and the left lung hilum was exposed. Central arterial and venous access was obtained for monitoring. Left pneumonectomy and left lung transplantation were performed as previously described.^18 Lung function was monitored during 4 hours of reperfusion while the left thoracotomy remained open. Combined (left and right) lung compliance was monitored throughout reperfusion. Airway pressure measurements and partial pressure of arterial oxygen (PaO2; systemic arterial as well as direct left pulmonary vein samples for graft-specific oxygenation) were obtained after 15 minutes, 1 hour and hourly thereafter. […] PaO2, PaCO2, and pH were measured using an i-STAT handheld blood analyzer (Abbott Point of Care, Princeton, NJ). After 4 hours of reperfusion, the animal was euthanized, and the heart-lung bloc was excised.\nAfter completion of reperfusion, small peripheral samples of the transplanted left lungs were tied off, and fresh tissue samples were collected from the left upper lobe, the left lingula, and left lower lobe. The same surgeon collected all samples from consistent, peripheral, dependent locations of each lobe in all animals. These samples were either used fresh or flash-frozen in liquid nitrogen and stored at −80° C.\nFresh lung samples were patted dry, weighed, and dried in a vacuum oven at 56° C. until the weight stabilized (typically 3-4 days). Lung wet/dry weight ratios were then calculated to assess edema.\nAfter collection of fresh lung samples, the left upper lobe was lavaged using 40 ml normal saline. Total cell counts and differential cell counts in BAL fluid were performed by the University of Virginia Clinical Laboratory in a blinded fashion. […]", "key": {"[1]": {"settings": "after 4 hours of reperfusion, vs vehicle"}, "[2]": {"settings": "after reperfusion, vs vehicle, P<0.05"}, "[3]": {"settings": "after reperfusion, vs vehicle, trended lower"}}}
{"compound": "O=C(NC1(c2ccccc2)CC1)c1c(CN2CCC(N3CCCCC3)CC2)c(-c2cccc(C(F)(F)F)c2)nc2cc(Br)ccc12", "note": "[GSK219, GSK2193874]", "values": [{"measurement": "adverse effects of administration", "setting": "1 mg/kg i.v. infusion over 30 min to recipient, 4 h reperfusion", "value": "no adverse effects"}, {"measurement": "left lung-specific PaO2/FiO2 ratio", "setting": "3 hours of reperfusion, vehicle 85.4±17.2, P=0.026", "value": "276±57", "unit": "mmHg"}, {"measurement": "left lung-specific PaO2/FiO2 ratio", "setting": "4 hours of reperfusion, vehicle 104±28.6, P=0.003", "value": "303±37", "unit": "mmHg"}, {"measurement": "left lung wet/dry weight ratios", "setting": "[1]", "value": "no significant differences"}, {"measurement": "overall lung histology by H&E staining", "setting": "[1]", "value": "significantly improved"}, {"measurement": "wet/dry weight ratios of the left lingula and left lower lobe", "setting": "[1]", "value": "trend lower"}, {"measurement": "neutrophils in BAL fluid (percent of total cells, differential cell count)", "setting": "after reperfusion, vehicle 80.2±1.4%, P=0.004", "value": "61.8±4.4", "unit": "%"}, {"measurement": "Ang-2 in plasma", "setting": "after reperfusion, vs vehicle", "value": "significantly reduced"}, {"measurement": "HMGB1 in BAL fluid", "setting": "after reperfusion, vs vehicle", "value": "significantly reduced"}, {"measurement": "ICAM-1 in plasma", "setting": "after reperfusion, vs vehicle", "value": "not significantly different"}, {"measurement": "IL-1β in BAL fluid", "setting": "after reperfusion, vs vehicle", "value": "not significantly altered"}, {"measurement": "IL-8 in BAL fluid", "setting": "after reperfusion, vs vehicle", "value": "significantly reduced"}, {"measurement": "P-selectin in plasma", "setting": "after reperfusion, vs vehicle", "value": "not significantly different"}, {"measurement": "VCAM-1 in plasma", "setting": "after reperfusion, vs vehicle", "value": "not significantly different"}, {"measurement": "ZO-1 in plasma", "setting": "after reperfusion, vs vehicle", "value": "significantly reduced"}, {"measurement": "ZO-2 in BAL fluid", "setting": "after reperfusion, vs vehicle", "value": "not significantly different but trended lower"}, {"measurement": "ZO-2 in plasma", "setting": "after reperfusion, vs vehicle", "value": "but not occludin (FIG. 23A) or ZO-2 (FIG. 23D) were significantly reduced"}, {"measurement": "claudin-5 in plasma", "setting": "after reperfusion, vs vehicle", "value": "significantly reduced"}, {"measurement": "occludin in plasma", "setting": "after reperfusion, vs vehicle", "value": "but not occludin (FIG. 23A) or ZO-2 (FIG. 23D) were significantly reduced"}, {"measurement": "ZO-1 in BAL fluid", "setting": "[2]", "value": "significantly reduced"}, {"measurement": "claudin-5 in BAL fluid", "setting": "[2]", "value": "significantly reduced"}, {"measurement": "occludin in BAL fluid", "setting": "[2]", "value": "significantly reduced"}, {"measurement": "P-selectin in BAL fluid", "setting": "after reperfusion, vs vehicle, P=0.0075", "value": "significantly reduced"}, {"measurement": "ICAM-1 in BAL fluid", "setting": "[3]", "value": "No significant changes"}, {"measurement": "VCAM1 in BAL fluid", "setting": "[3]", "value": "No significant changes"}, {"measurement": "reduction of neutrophil infiltration (immunohistochemistry of lung sections, neutrophils per HPF)", "setting": "compared to vehicle control, P<0.0001", "value": 70, "unit": "%"}, {"measurement": "systemic arterial PaO2/FiO2 ratio", "setting": "during reperfusion, vs vehicle", "value": "improved during reperfusion in the GSK-treated group, although this was not significant"}, {"measurement": "histologic score for polymorphonuclear neutrophils per high-powered field (PMNs/HPF)", "setting": "left lower lobe after reperfusion, vs vehicle, P=0.028", "value": "significantly improved"}, {"measurement": "histologic composite lung injury score", "setting": "left lower lobe after reperfusion, vs vehicle, P=0.041", "value": "significantly improved"}, {"measurement": "histologic score for alveolar edema", "setting": "left lower lobe after reperfusion, vs vehicle, P=0.048", "value": "significantly improved"}, {"measurement": "average pulmonary venous pH", "setting": "throughout reperfusion, vehicle 7.3±0.024, no significant difference", "value": "7.3±0.020"}, {"measurement": "average pulmonary venous PaCO2", "setting": "throughout reperfusion, vehicle 60.1±2.11, no significant difference", "value": "60.4±1.46", "unit": "mmHg"}]}
